Reference: US20220194938A1, “NOVEL COMPOUNDS AND PHARMACEUTICAL COMPOSITIONS THEREOF FOR THE TREATMENT OF INFLAMMATORY DISORDERS” (GALAPAGOS NV, priority 2019, published 2022)

What was measured:
[1] = target: T1, human IRAK-4 (Homo sapiens, UniProt Q9NWZ3); assay: Phosphorylation IC50 determination for human IRAK-4 (ADP-Glo kinase assay); settings: human IRAK-4, RIP140 substrate, Km ATP; read-out: IRAK4 ADPglo biochemical assay IC50
T1 construct: purchased Carna Biosciences 09 145
T1 sequence (Q9NWZ3 1-460): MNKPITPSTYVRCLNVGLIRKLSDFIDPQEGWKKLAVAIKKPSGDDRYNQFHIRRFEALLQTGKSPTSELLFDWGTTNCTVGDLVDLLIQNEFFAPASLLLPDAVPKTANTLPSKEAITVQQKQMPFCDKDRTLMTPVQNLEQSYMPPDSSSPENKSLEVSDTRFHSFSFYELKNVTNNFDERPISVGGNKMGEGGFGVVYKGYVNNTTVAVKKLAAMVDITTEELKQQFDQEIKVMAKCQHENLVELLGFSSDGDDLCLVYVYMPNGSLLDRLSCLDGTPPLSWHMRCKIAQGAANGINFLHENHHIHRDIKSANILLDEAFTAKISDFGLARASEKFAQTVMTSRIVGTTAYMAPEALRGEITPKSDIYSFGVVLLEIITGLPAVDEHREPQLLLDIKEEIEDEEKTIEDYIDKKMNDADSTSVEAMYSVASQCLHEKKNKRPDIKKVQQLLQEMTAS
Method: 3.1. Phosphorylation IC50 Determination for Human IRAK-4
The phosphorylation of the substrate RIP140 (SEQ ID1) by IRAK4 at Km ATP was detected with the ADP-Glo Kinase Assay (Promega, Cat #V9103), a luminescent kinase assay which measures the ADP formed from a kinase reaction. (Zegzouti et al. 2009) In a second step the kinase reaction was terminated and all the remaining ATP was depleted. In a final step the ADP was converted into ATP and this newly synthesized ATP was measured by using a luciferase/luciferin reaction with a luminescent reader. The luminescent signal positively correlated with kinase activity, in particular kinase inhibition giving a decrease of the luminescent signal.
For the semi-automated assay, the positive control (100% inhibition) was prepared by diluting 10 mM staurosporine stock mixture (20 μL) in water (3.8 mL) and DMSO (180 μL), thus resulting in a […] staurosporine solution at 1% DMSO (final concentration after further dilution in the kinase reaction).
For the automated assay, no pre-dilution of the 10 mM staurosporine stock was made. 10 mM staurosporine was spotted directly in the assay plate using acoustic dispensing and complemented with DMSO to result in a similar final concentration as mentioned above.
For the semi-automated assay, the negative control (0% inhibition) was prepared by mixing water (3.8 mL) and DMSO (200 μL) resulting in a final concentration of 1% DMSO after further dilution in the kinase reaction. For the automated assay no pre-dilution of DMSO was done. 100% DMSO was spotted directly on the assay plate.
The assay buffer solution was prepared at a concentration corresponding to 5 fold the final (most diluted) assay concentration by mixing a solution of 125 mM TRIS pH 7.5+0.05% Triton X-100+2.5 mM EGTA (5.27 mL) with 1M mgCl2 (72 μL), 1M DTT (57.6 μL), and 200 mM MnCl2 (360 μL).
For example, for the semi-automated method, the enzyme-substrate mixture was prepared by mixing water (3999 μL), assay buffer solution (1380 μL), 1 mM RIP140 (138 μL—SEQ ID1), and 200 ng/mL IRAK 4 (3.45 μL Carna Biosciences, 09 145).
For semi-automated method, the ATP mixture was prepared at a concentration corresponding to 2.5 fold the final (most diluted) assay concentration of the semi-automated method and 1.5 fold the final (most diluted) assay concentration of the automated method. For example, for the semi-automated method, the ATP mixture was prepared by mixing water (4126 μL), assay buffer solution (1380 μL), and 10 mM ATP (13.80 μL).
The assay was performed either in a semi-automated or fully automated manner. The assay volume and the incubation time of the ADP detection were different accordingly the method used.
3.1.3.1. Semi-Automated Assay
The compounds were prepared as a serial dilution of 10 point dose responses with 1/5 dilution steps in 100% DMSO starting from 2 mM highest concentration, diluted 1/20 in water. 1 μL was transferred dry to the assay plates.
On each assay plate 32 wells of each control (positive & negative) were added, followed by 2 μL enzyme-substrate mixture.
The reaction was started by adding 2 μL diluted ATP (final concentration Km ATP) on the assay plates. Plates were centrifuged for a few seconds at 1000 rpm followed by an incubation at r.t. for 120 min.
The reactions were stopped and the unconsumed ATP was depleted by adding 5 μL ADP-glo Reagent (Promega, Cat #V9103) to the reaction. The plates were quickly centrifuged at 1000 rpm and incubated at r.t. for 40 min corresponding to full ATP depletion.
The ADP was converted back to ATP and luciferase and luciferin were introduced to detect ATP by adding 10 μL kinase detection reagent (Promega, Cat #V9103) to the reaction. The plates were centrifuged for a few seconds at 1000 rpm and incubated at r.t. for a further 30 min.
Luminescent read out was performed on an Envision luminescent reader (Perkin Elmer). […]

[2] = target: T2, hERG channel (Homo sapiens, UniProt Q12809); assay: hERG channel test - manual patch clamp assay; assay type: cell-based; settings: 10 μM, HEK293 cells stably transfected with hERG, tail current
T2 construct: host or cells: HEK293
T2 sequence (Q12809 whole entry): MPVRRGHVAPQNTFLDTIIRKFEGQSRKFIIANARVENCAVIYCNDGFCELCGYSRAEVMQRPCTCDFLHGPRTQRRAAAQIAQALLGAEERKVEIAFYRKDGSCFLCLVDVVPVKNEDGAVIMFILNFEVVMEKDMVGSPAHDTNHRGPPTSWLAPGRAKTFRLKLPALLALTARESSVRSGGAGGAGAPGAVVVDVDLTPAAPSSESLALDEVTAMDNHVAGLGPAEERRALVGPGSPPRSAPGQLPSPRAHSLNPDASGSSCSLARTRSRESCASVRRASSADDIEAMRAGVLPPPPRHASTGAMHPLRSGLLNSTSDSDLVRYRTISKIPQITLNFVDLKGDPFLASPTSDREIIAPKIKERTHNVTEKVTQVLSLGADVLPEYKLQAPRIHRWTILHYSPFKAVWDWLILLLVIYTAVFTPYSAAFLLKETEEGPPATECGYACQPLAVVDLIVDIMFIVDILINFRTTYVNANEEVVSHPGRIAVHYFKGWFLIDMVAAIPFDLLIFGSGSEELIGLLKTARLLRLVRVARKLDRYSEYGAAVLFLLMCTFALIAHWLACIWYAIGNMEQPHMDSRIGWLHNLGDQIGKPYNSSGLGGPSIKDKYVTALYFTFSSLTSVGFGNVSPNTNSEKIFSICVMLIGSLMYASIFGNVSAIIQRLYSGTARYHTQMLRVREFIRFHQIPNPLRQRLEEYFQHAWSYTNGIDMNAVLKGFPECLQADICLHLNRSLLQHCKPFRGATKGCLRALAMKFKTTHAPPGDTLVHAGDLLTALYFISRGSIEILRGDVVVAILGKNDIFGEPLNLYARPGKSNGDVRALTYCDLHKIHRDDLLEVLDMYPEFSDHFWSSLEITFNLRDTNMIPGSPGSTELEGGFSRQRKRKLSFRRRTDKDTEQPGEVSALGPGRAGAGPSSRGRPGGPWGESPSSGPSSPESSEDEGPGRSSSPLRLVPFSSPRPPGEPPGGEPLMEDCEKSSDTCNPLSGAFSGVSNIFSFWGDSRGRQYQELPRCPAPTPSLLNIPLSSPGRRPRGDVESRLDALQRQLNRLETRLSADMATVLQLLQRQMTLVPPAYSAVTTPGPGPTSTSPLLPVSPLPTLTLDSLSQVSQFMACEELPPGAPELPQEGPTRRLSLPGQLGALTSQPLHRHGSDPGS
Method: 4.7 hERG Channel Test—Manual Patch Clamp Assay
The aim of this assay is to determine the in-vitro effects of a test compound on hERG current ([…]) expressed in Human Embryonic Kidney (HEK) cells (evaluation of the blocking profile of test substance on the IKr-like potassium current mediated by hERG channel stably transfected in a human cell line), which is linked to cardiac safety.
The test substance is dissolved in pure dimethylsulfoxide (DMSO) by cold stirring to give a stock solution concentrated 333-fold as compared with the highest concentration to be tested. This stock solution is used to prepare the other stock solutions in DMSO. Each stock solution is used to prepare the solutions containing the final concentrations tested by dilution in extracellular solution (0.1, 1, 10 and 100 μM). Final concentration of DMSO should not not exceed 0.3%.
All formulations are prepared in glass containers.
If a slight opalescence persists at the highest concentration, a 50 μM (instead of 100 μM) concentration is tested.
DMSO diluted in extracellular solution (at the different concentrations used in the final test substance solutions) is used as vehicle.
The extracellular solution is constituted as follows (mM): K-gluconate: 4 mM/Na-gluconate: 145 mM/Mg-gluconate: 2 mM/Ca-gluconate: 3.5 mM/HEPES: 5 mM/glucose: 5 mM/mannitol: 20 mM. The pH is adjusted with NaOH to 7.40±0.05.
Human embryonic kidney (HEK293) cells are stably transfected with the hERG clone (Creacell) and are maintained at 37° C. in a 5% CO2/95% air incubator. Cells used for the study are transferred to an experimental chamber of approximately 2 mL which is maintained at a temperature of 35±0.5° C. by a thermoelectric device (Harvard Apparatus: Type TC-344B) and mounted on the platform of an inverted microscope (Olympus: Type IX-51 or Leica DMI3000 B). Cells are continuously superfused with Tyrode's solution constituted as follows (mM): NaCl: 145/KCl: 4/HEPES: 5/glucose: 5/CaCl2:1/MgCl2: 1.
Ionic currents from hERG-transfected cells are measured using the whole cell configuration of the patch clamp technique. Glass pipettes are pulled from borosilicate glass by a vertical puller (Sutter Instruments: Type P30). Pipette tip resistance is approximately 1.5 to 3.5 MΩ when filled with internal solution constituted as follows (mM): K-gluconate: 145/Mg-gluconate: 1/EGTA: 2/HEPES:5/K2ATP: 2.
The pipettes are connected to the input stage of a patch-clamp amplifier (Axon Instruments: Multiclamp 700B-1). Stimulation, data recording and analysis are performed using specialized Axon Instruments software (pClamp 9.2.0. or pClamp 10.3.0.2).
After rupture of the cell membrane (entering whole-cell mode), cells are stimulated every 10 seconds using the following protocol: 500 ms pulse to +10 mV from a holding potential of −80 mV followed by a 500 ms pulse to −40 mV during which tail current is measured.
Once the current under control conditions is stable, recordings are taken before (control) and after addition of the test substance. The effect of the test substance on tail current is monitored continuously until steady-state is reached. The peak tail current amplitude is averaged for 3 stimuli.
The following parameters are measured: • Cell capacitance (pF). • Peak tail current amplitude (pA).
Peak tail current measurements are normalized using the cell capacitance as an index of cell surface.
The cells will be considered as valid if cell capacitance <80 pF, access resistance <20 MΩ and holding current >−200 pA.
Results are expressed as absolute values and as percentage change from control (percentage of tail current inhibition).
The test substance is studied at 4 ascending concentrations on 3 hERG-transfected cells.
The concentration of test substance inducing 50% of inhibition (IC50) of tail current is determined, if possible, from each individual concentration-response curve. The equation is of the following form: […]

CC(C)(O)CCc1cn2cc(NC(=O)c3cccc(C(F)(F)F)n3)c(C(=O)NCC(F)(F)F)cc2n1 [Compound 41, 2-(3-hydroxy-3-methylbutyl)-N-(2,2,2-trifluoroethyl)-6-(6-(trifluoromethyl)picolinamido)imidazo[1,2-a]pyridine-7-carboxamide]
IC50 [1]: 0.1 to 5 nM
hERG Manual Patch Clamp Single dose PIN (10 μM) [2]: −17%
